In patent publication US20260327628A1, “AN RNA APTAMER THAT BINDS TO ASP7967 OR AN ANALOGUE THEREOF” (priority 2022, published 2026):
Where “and” joins values, the source holds several entries; their conditions need not be identical. Equal entries are not always repeated. Entries after “also recorded” stand apart in the source; their conditions may differ.

Assays:
hEPO expression in mice = assay: In vivo hEPO assay in mice injected with AAV8 vectors; set-up: species or system BALB/c cAJc1 mice
Method: For AAV production, 293T cells seeded in cellstack5 (Corning) were cotransfected using PEI MAX (Polysciences Inc) with 227.9 μg of the plasmid encoding AAV8 replication and capsid proteins, 455.8 μg of the plasmid encoding helper proteins and 227.9 μg of the pAAV-CMV-hEPO-a8c or -control. At 6 days after transfection, cells and supernatants were harvested, then filtered and concentrated by KrosFlo Research Ili (Spectrum Labs, Inc) for AAV purification by affinity chromatography using AKTA avant 25 (GE healthcare). Then, the virus solutions were ultracentrifuged and dialyzed. Titers of the AAV solutions were determined by quantitative PCR using the AAVpro Titration Kit (for Real-Time PCR) Ver.2 (Takara).
For in vivo animal experiments, 7-week-old male BALB/c cAJc1 mice (CLEA Japan Inc.) were intravenously injected with 200 μl of PBS (as the control group) or purified AAV8 particles (3.0×10^10 virus genome (vg) per mouse) carrying hEPO gene with or without the CPP-a8c-AC17-4 riboswitch. After 13 days from AAV injection, mice were subjected to 24 μl blood collection from tail vein and the blood samples were immediately diluted with 96 μl. At 24 h after the blood collection, the mice were orally administrated 100 mg kg^−1 of ASP7967 in 0.5% methyl cellulose (FUJIFILM Wako Pure Chemical Corp) or 0.5% methyl cellulose as the vehicle solution. At 2, 4, 6, 8 and 24 h after the ASP7967 administration, blood samples were collected as described above. The blood samples were incubated on ice, then centrifuged at 1,200×g for 15 min at 4° C. to collect serum samples. The serum samples were stored at −80° C. and used for measurement of serum hEPO concentration by ELISA.
Next, we studied the riboswitch potency and functionality in vivo. […] Mice were intravenously injected with viral vectors AAV8-CMV-hEPO-control, AAV8-CMV-hEPO-a8c-AC17-4-CPP, or saline (WT). Two weeks after AAV injection, 100 mg kg^−1 dose of ASP7967 was orally administered to induce expression from the riboswitch-regulated vector. Blood was drawn before and at multiple time points after the oral administration (FIG. 9c). Secreted hEPO levels in the serum of the mice injected with the control AAV (AAV8-CMV-hEPO-control) were around 550 mIU ml^−1, and administration of 100 mg kg^−1 dose of the ligand had no effect during the observed time period (FIG. 9d, upper right). On the other hand, upon administration of 100 mg kg^−1 dose of the ligand, hEPO secretion levels were induced by riboswitch-regulated vector (AAV8-CMV-hEPO-a8c-AC17-4-CPP) reaching approximately 115 mIU mL-1 at 6-8 h postdosing, corresponding to a 7.2-fold increase over the mice dosed with the vehicle (FIG. 9d, lower left).

cpAC17-4 RNA aptamer = assay: Affinity measurement by SPR, cpAC17-4 immobilized chip; format: binding; conditions: cpAC17-4 with 3′ poly(A) tail
Method: Affinity measurements of the aptamers with the ligands by SPR were performed as described by Chang et al.^53 with some modifications. Experiments were performed on Biacore T200 (Cytiva) at 25° C. For immobilization of the capture DNA (5′-/5AmMC6/[…]-3′ (SEQ ID NO: 32),/5AmMC6/: 5′ amino modifier C6, IDT), 1×HBS-N (10 mM HEPES, pH 7.4, 150 mM NaCl) was used as the running buffer. CM5 chip surface was washed by two injections of NaOH/NaCl solution (25 mM NaOH, 1 M NaCl) at 20 μl min^−1 for 30 s. […]
The dsDNA templates for in vitro transcription of the aptamers were prepared by primer extension of two oligo DNAs using Q5 High-Fidelity DNA Polymerase (NEB). […] RNA concentrations were determined by absorbance at 260 nm according to OligoCalc^54. […] An aptamer ligand was injected at 30 μl min^−1 for 120 s to monitor association, and then the dissociation kinetics was monitored for 180 s in the SPR running buffer. […] The raw data were analysed by Biacore T200 Evaluation Software 1.0 using 1:1 Langmuir interaction model. […] Dissociation constant (KD) was determined from the ratio of the association and the dissociation rate constants (KD=koff/kon) or by equilibrium analysis. […]

Structure (SMILES) | hEPO secretion level (serum) (hEPO expression in mice; 100 mg kg^−1 oral, 6-8 h postdosing, AAV8-CMV-hEPO-a8c-AC17-4-CPP) | increase of serum hEPO over vehicle (hEPO expression in mice; 100 mg kg^−1 oral, AAV8-CMV-hEPO-a8c-AC17-4-CPP) | effect of ligand on serum hEPO in mice injected with control AAV (hEPO expression in mice; 100 mg kg^−1 oral, AAV8-CMV-hEPO-control) | serum hEPO / transgene expression as ligand concentration declines (hEPO expression in mice; 100 mg kg^−1 oral, after 6-8 h) | hEPO after readministration of the ligand (hEPO expression in mice; readministration, data not shown) | Kd (cpAC17-4 RNA aptamer) [nM]
Fc1ccc(Nc2nc(NCc3ncccn3)nc(Nc3ccc(F)cc3)n2)cc1 [ASP7967] | approximately 115 mIU mL-1 | 7.2 fold and ~ 7.2 fold | no effect | subsequently decreased; also recorded: diminished as the ligand concentration in the target tissue declined | reactivation of hEPO | 
Fc1ccc(Nc2nc(NCc3ncccn3)nc(Nc3ccccc3)n2)cc1 [ASP2905, reference compound] |  |  |  |  |  | 30
